From ChEMBL document CHEMBL1255175, “Synthesis, antimicrobial, and mosquito larvicidal activity of 1-aryl-4-methyl-3,6-bis-(5-methylisoxazol-3-yl)-2-thioxo-2,3,6,10b-tetrahydro-1H-pyrimido[5,4-c]quinolin-5-ones” (2010)
In brackets after ≈: the same amount, converted by molar mass.

Key:
Assay type in all cases: functional
Bacillus subtilis = assay: Antimicrobial activity against Bacillus subtilis MTCC 441
[1] = tested on: Lysinibacillus sphaericus; assay: Antimicrobial activity against Bacillus sphaericus MTCC 511
Pseudomonas aeruginosa = assay: Antimicrobial activity against Pseudomonas aeruginosa MTCC 741
[2] = tested on: Chromobacterium violaceum; assay: Antimicrobial activity against Chromobacterium violaceum MTCC 2656
Staphylococcus aureus = assay: Antimicrobial activity against Staphylococcus aureus MTCC 96
Klebsiella aerogenes = assay: Antimicrobial activity against Klebsiella aerogenes MTCC 39
Aspergillus niger [3] = assay: Antifungal activity against Aspergillus niger MTCC 282 at 30 ug/ml; conditions: read-out: DIZ
Aspergillus niger [4] = assay: Antifungal activity against Aspergillus niger MTCC 282 at 100 ug/ml; conditions: read-out: DIZ
[5] = Antifungal activity against Chrysosporium tropicum MTCC 2821 at 30 ug/ml
[6] = Antifungal activity against Chrysosporium tropicum MTCC 2821 at 100 ug/ml
Rhizopus arrhizus [7] = assay: Antifungal activity against Rhizopus oryzae MTCC 262 at 30 ug/ml; conditions: read-out: DIZ
Rhizopus arrhizus [8] = assay: Antifungal activity against Rhizopus oryzae MTCC 262 at 100 ug/ml; conditions: read-out: DIZ
Fusarium verticillioides [9] = assay: Antifungal activity against Fusarium moniliforme MTCC 1848 at 30 ug/ml; conditions: read-out: DIZ
Fusarium verticillioides [10] = assay: Antifungal activity against Fusarium moniliforme MTCC 1848 at 100 ug/ml; conditions: read-out: DIZ
Curvularia lunata [11] = assay: Antifungal activity against Curvularia lunata MTCC 2030 at 30 ug/ml; conditions: read-out: DIZ
Curvularia lunata [12] = assay: Antifungal activity against Curvularia lunata MTCC 2030 at 100 ug/ml; conditions: read-out: DIZ
Culex quinquefasciatus = assay: Insecticidal activity against Culex quinquefasciatus 4th instar larvae; conditions: for LC50: Culex quinquefasciatus

Row | Structure (SMILES) | MIC (Bacillus subtilis) [µg/mL] | MIC [1] [µg/mL] | MIC (Pseudomonas aeruginosa) [µg/mL] | MIC [2] [µg/mL] | MIC (Staphylococcus aureus) [µg/mL] | MIC (Klebsiella aerogenes) [µg/mL] | zone of inhibition at 30 µg/mL (Aspergillus niger [3]) [mm] | zone of inhibition at 100 µg/mL (Aspergillus niger [4]) [mm] | inhibition zone (IZ) [5] [mm] | inhibition zone (IZ) [6] [mm] | zone of inhibition at 30 µg/mL (Rhizopus arrhizus [7]) [mm] | zone of inhibition at 100 µg/mL (Rhizopus arrhizus [8]) [mm] | zone of inhibition at 30 µg/mL (Fusarium verticillioides [9]) [mm] | zone of inhibition at 100 µg/mL (Fusarium verticillioides [10]) [mm] | zone of inhibition at 30 µg/mL (Curvularia lunata [11]) [mm] | zone of inhibition at 100 µg/mL (Curvularia lunata [12]) [mm] | LC90 (Culex quinquefasciatus) [µg/mL] | LC50 (Culex quinquefasciatus) [µg/mL]
1 | O=C(O)c1cn(C2CC2)c2cc(N3CCNCC3)c(F)cc2c1=O [CIPROFLOXACIN] | 20 (≈ 60.4 µM) | 20 (≈ 60.4 µM) | 30 (≈ 90.5 µM) | 25 (≈ 75.4 µM) | – | – | – | – | – | – | – | – | – | – | – | – | – | –
2 | CC1=C2C(=O)N(c3cc(C)on3)c3ccccc3C2N(c2ccc(Br)cc2)C(=S)N1c1cc(C)on1 (stereo not given) | 6 (≈ 10.7 µM) | 8 (≈ 14.2 µM) | 9 (≈ 16 µM) | 5 (≈ 8.89 µM) | 9 (≈ 16 µM) | 7 (≈ 12.4 µM) | 40 | 50 | 25 | 45 | 39 | 45 | 25 | 40 | 35 | 45 | 1.8 (≈ 3.2 µM) | 0.88 (≈ 1.56 µM)
3 | CC1=C2C(=O)N(c3cc(C)on3)c3ccccc3C2N(c2ccccc2Cl)C(=S)N1c1cc(C)on1 (stereo not given) | 8 (≈ 15.4 µM) | 10 (≈ 19.3 µM) | 5 (≈ 9.65 µM) | 6 (≈ 11.6 µM) | 9 (≈ 17.4 µM) | 8 (≈ 15.4 µM) | 30 | 55 | 25 | 40 | 35 | 50 | 30 | 45 | 40 | 55 | 1 (≈ 1.93 µM) | 0.98 (≈ 1.89 µM)
4 | Clc1ccccc1C(c1ccccc1)(c1ccccc1)n1ccnc1 [CLOTRIMAZOLE] | – | – | – | – | – | – | – | 26 | – | 30 | – | 33 | – | 25 | – | 35 | – | –
5 | COc1cccc(N2C(=S)N(c3cc(C)on3)C(C)=C3C(=O)N(c4cc(C)on4)c4ccccc4C32)c1 (stereo not given) | 18 (≈ 35 µM) | 18 (≈ 35 µM) | 8 (≈ 15.6 µM) | 11 (≈ 21.4 µM) | 12 (≈ 23.4 µM) | 13 (≈ 25.3 µM) | 20 | 40 | 28 | 40 | 40 | 65 | 35 | 60 | 35 | 55 | 2.41 (≈ 4.69 µM) | 1.25 (≈ 2.43 µM)
6 | CC1=C2C(=O)N(c3cc(C)on3)c3ccccc3C2N(Cc2ccccc2)C(=S)N1c1cc(C)on1 (stereo not given) | 22 (≈ 44.2 µM) | 18 (≈ 36.2 µM) | 20 (≈ 40.2 µM) | 18 (≈ 36.2 µM) | 25 (≈ 50.2 µM) | 15 (≈ 30.1 µM) | 31 | 61 | 30 | – | 35 | 59 | 32 | 55 | 30 | 55 | 1.59 (≈ 3.2 µM) | 2.27 (≈ 4.56 µM)
7 | CC1=C2C(=O)N(c3cc(C)on3)c3ccccc3C2N(c2ccc(Cl)cc2)C(=S)N1c1cc(C)on1 (stereo not given) | 16 (≈ 30.9 µM) | 15 (≈ 29 µM) | 20 (≈ 38.6 µM) | 13 (≈ 25.1 µM) | 15 (≈ 29 µM) | 15 (≈ 29 µM) | 25 | 40 | 30 | 45 | 40 | 50 | 30 | 45 | 35 | 50 | 4 (≈ 7.72 µM) | 1.01 (≈ 1.95 µM)
8 | CC1=C2C(=O)N(c3cc(C)on3)c3ccccc3C2N(c2ccc(C)cc2)C(=S)N1c1cc(C)on1 (stereo not given) | 16 (≈ 32.2 µM) | 11 (≈ 22.1 µM) | 10 (≈ 20.1 µM) | 6 (≈ 12.1 µM) | 10 (≈ 20.1 µM) | 8 (≈ 16.1 µM) | 40 | 60 | 40 | – | 45 | 65 | 45 | 60 | 45 | 65 | 2.41 (≈ 4.84 µM) | 0.85 (≈ 1.71 µM)
9 | CC1=C2C(=O)N(c3cc(C)on3)c3ccccc3C2N(c2ccccc2)C(=S)N1c1cc(C)on1 (stereo not given) | 19 (≈ 39.3 µM) | 15 (≈ 31 µM) | 20 (≈ 41.4 µM) | 18 (≈ 37.2 µM) | 15 (≈ 31 µM) | 13 (≈ 26.9 µM) | 25 | 45 | 30 | 45 | 40 | 50 | 30 | 45 | 35 | 40 | 3.1 (≈ 6.41 µM) | 1.02 (≈ 2.11 µM)
10 | COc1ccc(N2C(=S)N(c3cc(C)on3)C(C)=C3C(=O)N(c4cc(C)on4)c4ccccc4C32)cc1 (stereo not given) | 20 (≈ 38.9 µM) | 15 (≈ 29.2 µM) | 15 (≈ 29.2 µM) | 18 (≈ 35 µM) | 10 (≈ 19.5 µM) | 14 (≈ 27.3 µM) | 35 | 60 | 40 | – | 45 | 65 | 35 | 60 | 40 | 60 | 3.65 (≈ 7.11 µM) | 2.09 (≈ 4.07 µM)
